How the values were obtained:
Assay type in all cases: cell-based, human
[1] = tested on: HeLa cells cotransfected with GFP-Parkin; assay: mitochondrial degradation assay / DUB cDNA overexpression screen (Tom20 staining); details: CCCP 20 μM, 24 hours
Method: To identify regulators of mitophagy, individual cDNAs from a FLAG-tagged DUB library were cotransfected into HeLa cells with GFP-Parkin using Lipofectamine 2000 (Invitrogen) (1:3 DUB-FLAG: GFP-Parkin cDNA ratio). After 24 hours of expression, cells were treated with […] CCCP for 24 hours, and fixed and stained using anti-Tom20 (Santa Cruz Biotechnology), anti-GFP (Aves Labs) and anti-FLAG (Sigma) primary antibodies. Following staining with secondary antibodies, images of random fields were acquired with a Leica SP5 Laser Scanning Confocal Microscope using a 40×/1.25 oil-objective (0.34 μm/pixel resolution, 1 μm confocal z-step size). Percent of GFP-Parkin and FLAG-DUB cotransfected cells containing Tom20 staining was scored blindly.
To identify DUBs that regulate mitochondria clearance, a FLAG-tagged human DUB cDNA library (97 DUBs) was screened in an established mitochondrial degradation assay (Narendra et al., J. Cell Biol., 183: 795-803 (2008)). In this assay, mitochondria depolarization induced by protonophore carbonyl cyanide 3-chlorophenylhydrazone (CCCP, 20 μM, 24 hours) results in marked loss of mitochondria in cultured cells overexpressing Parkin (as measured by staining for mitochondria outer membrane protein marker Tom20). […] Individual FLAG-tagged DUB cDNAs were cotransfected with GFP-Parkin, and their effects on CCCP-induced mitochondrial (Tom20) clearance were measured. […]

[2] = tested on: GFP-Parkin stable cell lines (HEK-293); assay: immunoblot of mitochondrial protein levels during CCCP treatment; details: CCCP 5 μM, t=6 h, p<0.01
Method: For total lysate experiments, cells were lysed after 24 hours in SDS sample buffer (Invitrogen) containing sample reducing agent (Invitrogen) and boiled at 95° C. for 10 minutes. Total lysates were resolved by SDS-PAGE and analyzed by immunoblotting. For immunoprecipitation experiments, cells were treated with 5 μM MG132 and the indicated concentrations and durations of CCCP at 24 hours (overexpression experiments) or 6 days (knockdown experiments) in 0.5% SDS in Tris-Buffered Saline (10 mM TRIS, 150 mM NaCl, pH 8.0) and boiled at 70° C. for 10 minutes. […] Inputs and anti-HA immunoprecipitates were resolved by SDS-PAGE and analyzed by immunoblotting.
Beyond ubiquitination, does USP30 regulate protein turnover in addition to ubiquitination? […] In contrast to the outer membrane proteins, mitochondrial matrix protein HSP60 and inner membrane protein TIMM8A were unchanged by CCCP within this time frame. Overexpression of USP30 in GFP-Parkin stable cells greatly attenuated or abolished the CCCP-induced depletion of MIRO and Tom20 (FIG. 6G, H). Stabilization by USP30 overexpression appeared to be relatively specific for MIRO and Tom20, since CCCP-induced degradation of other mitochondria membrane proteins (MFN-1, TOM70, VDAC) was unaffected (FIG. 6G, H).

[3] = tested on: GFP-Parkin expressing stable HEK-293 cells; assay: HA-ubiquitin immunoprecipitation and immunoblot of MIRO and Tom20; details: HA-ubiquitin immunoprecipitates, CCCP 5 μM, 2 hours
Method: For total lysate experiments, transfected HEK-293 cells were lysed at 24 hours post-transfection in SDS sample buffer (Invitrogen) containing sample reducing agent (Invitrogen). For immunoprecipitation experiments, cells were lysed at 24 hours (overexpression experiments) or 6 days (knockdown experiments) post-transfection in TBS buffer containing 0.5% SDS, and lysates were diluted with a buffer containing 1% Triton-X-100 and protease and phosphatase inhibitors. Ubiquitinated proteins were immunoprecipated from lysates of HA-ubiquitin transfected cells with anti-HA affinity matrix beads (Roche Applied Science). Inputs and precipitates were resolved by SDS-PAGE and analyzed by immunoblotting.
For total lysate experiments, cells were lysed after 24 hours in SDS sample buffer (Invitrogen) containing sample reducing agent (Invitrogen) and boiled at 95° C. for 10 minutes. Total lysates were resolved by SDS-PAGE and analyzed by immunoblotting. For immunoprecipitation experiments, cells were treated with 5 μM MG132 and the indicated concentrations and durations of CCCP at 24 hours (overexpression experiments) or 6 days (knockdown experiments) in 0.5% SDS in Tris-Buffered Saline (10 mM TRIS, 150 mM NaCl, pH 8.0) and boiled at 70° C. for 10 minutes. […] Inputs and anti-HA immunoprecipitates were resolved by SDS-PAGE and analyzed by immunoblotting. […]

USP30 = USP30 knockdown efficiency in HEK-293 cells
Method: (§1) To determine Parkin substrates, HEK-293 GFP-Parkin inducible cells were treated with doxycycline for 24 hours, and then treated with 5 μM CCCP or DMSO vehicle control for 2 hours. To determine USP30 substrates, HEK-293T cells were transfected with human USP30 shRNA using Lipofectamine 2000 (Invitrogen) for 6 days, then treated as before. […] Preparation of cellular lysates and immunoprecipitation
Since Parkin and USP30 antagonistically regulate mitochondrial degradation, it was hypothesized that this E3 ligase and DUB act on some common substrates. To identify Parkin and USP30 substrates, global ubiquitination in cells was analyzed by mass spectrometry (MS) following immunoaffinity enrichment of ubiquitinated peptides from trypsin-digested extracts using the ubiquitin branch-specific (K-GG) antibodies. Global ubiquitination was analyzed and quantified by MS in HEK-293 cells in two different sets of conditions: 1) inducible Parkin overexpression, or 2) USP30 knockdown (USP30 knockdown efficiency was 85±5% (see FIG. 7C)). In each set, cells were treated with CCCP (5 μM, 2 hours) or vehicle control (DMSO).

HEK-293 cells = assay: global ubiquitination (K-GG) mass spectrometry, USP30 knockdown; details: CCCP 5 μM, 2 hours
Method: as §1
To identify Parkin substrates, HEK 293T cells stably expressing inducible GFP-Parkin (human) were induced using doxycycline (1 μg/mL) for 24 hours, then treated with 5 μM CCCP or DMSO vehicle control for 2 hours. To determine USP30 substrates, HEK 293T cells were transfected with human USP30 shRNA using Lipofectamine 2000 (Invitrogen) for 6 days, then treated as above.
Immunoaffinity isolation and mass spectrometry methods were used to enrich and identify K-GG peptides from digested protein lysates as previously described (Xu et al., Nat. Biotech., 28: 868-873 (2010); Kim et al., Mol. Cell, 44: 325-340 (2011)). Cell lysates were prepared in lysis buffer (8M urea 20 mM HEPES pH 8.0 with 1 mM sodium orthovanadate, 2.5 mM sodium pyrophosphate, 1 mM ß-glycerophosphate) by brief sonication on ice. Protein samples (60 mg) were reduced at 60° C. for 20 min in 4.1 mM DTT, cooled 10 min on ice, and alkylated with 9.1 mM iodoacetamide for 15 min at room temperature in the dark. […]

| Compound | Parkin-transfected cells lacking Tom20 staining [1] [%] | decrease in Tom20 protein level [2] | increase in level of ubiquitinated MIRO [3] [fold] | USP30 knockdown efficiency (USP30) [%] | USP30 shRNA+CCCP/CCCP ubiquitination ratio for Tom20 (HEK-293 cells; p=0.005) | USP30 shRNA+CCCP/CCCP ubiquitination ratio for MIRO (HEK-293 cells; p=0.019) |
| --- | --- | --- | --- | --- | --- | --- |
| N#CC(C#N)=NNc1cccc(Cl)c1 [CCCP, carbonyl cyanide 3-chlorophenylhydrazone] | > 80 | 10+/−1% | – | – | – | – |
| CCAGAGTCCTGTTCGATTT ((CCAGAGTCCTGTTCGATTT; as printed in the source, key not given here) [human USP30 shRNA] | – | – | ~2.5 | 85±5 | 3.52 | 2.95 |

Reference: US20200172911A1, “USP30 INHIBITORS AND METHODS OF USE” (Genentech, Inc., priority 2012, published 2020)
